Columns and labels:
Cannabinoid receptor 1 [1] = target: Cannabinoid receptor 1 (Rattus norvegicus, UniProt P20272); experiment: Binding affinity to rat CB1 receptor
Neutrophil = experiment: Inhibition of human neutrophil migration incubated for 30 mins prior to fMLP challenge by boyden chamber assay; type: functional, cell-based
HEK293 = experiment: Induction of rat TRPV3 expressed in HEK293 cells assessed as increase of Ca2+ level relative to ionomycin; type: cell-based
[2] = Induction of rat TRPV3 expressed in HEK293 cells assessed as increase of Ca2+ level; type: cell-based
[3] = Antiinflammatory activity in human glial cells assessed as reduction of LPS-induced nitrate expression at 1 uM; type: functional; design: scale not given: the % may be the effect or the level left
Mus musculus [4] = experiment: Reduction of iNOS protein expression in C57BL/6J mouse hippocampus inoculated with human amyloid beta (1 to 42) at 10 ug/kg, ip after 10 days by immunofluorescence analysis; type: functional; design: scale not given: the % may be the effect or the level left
[5] = Reduction of sphingomyelin content in human fibroblast at 30 uM; type: ADME, cell-based; design: scale not given: the % may be the effect or the level left
Fibroblast [6] = experiment: Reduction of lecithin content in Niemann-Pick patient fibroblast at 30 uM; type: functional, Homo sapiens; design: scale not given: the % may be the effect or the level left
[7] = Antiinflammatory activity in human glial cells assessed as reduction of LPS-induced S100B expression at 1 uM; type: functional; design: scale not given: the % may be the effect or the level left
Mus musculus [8] = experiment: Reduction of IL-1beta release in C57BL/6J mouse hippocampus inoculated with human amyloid beta (1 to 42) at 10 ug/kg, ip after 10 days by ELISA; type: functional; design: scale not given: the % may be the effect or the level left
Fibroblast [9] = experiment: Reduction of sphingomyelin content in Niemann-Pick patient fibroblast at 30 uM; type: functional, Homo sapiens; design: scale not given: the % may be the effect or the level left
Mus musculus [10] = experiment: Antiinflammatory activity in Swiss OF1 mouse assessed as reduction of LPS-induced TNF-alpha expression at 10 mg/kg, ip by immunoblotting analysis; type: functional; design: scale not given: the % may be the effect or the level left; details: route intraperitoneal
Mus musculus [11] = experiment: Reduction of NO release in C57BL/6J mouse hippocampus inoculated with human amyloid beta (1 to 42) at 10 ug/kg, ip after 7 days; type: functional; design: scale not given: the % may be the effect or the level left
Mus musculus [12] = experiment: Reduction of IL-1beta protein expression in C57BL/6J mouse hippocampus inoculated with human amyloid beta (1 to 42) at 10 ug/kg, ip after 10 days by immunofluorescence analysis; type: functional; design: scale not given: the % may be the effect or the level left
[13] = Antiinflammatory activity in human glial cells assessed as reduction of LPS-induced iNOS expression at 1 uM; type: functional; design: scale not given: the % may be the effect or the level left
[14] = Reduction of lecithin content in human fibroblast at 30 uM; type: ADME, cell-based; design: scale not given: the % may be the effect or the level left
Cannabinoid receptor 1 [15] = target: Cannabinoid receptor 1 (Mus musculus, UniProt P47746); experiment: Partial agonist activity at mouse CB1 receptor by vas deferens assay
Cannabinoid receptor 1 (Mus musculus, UniProt P47746), sequence (P47746 whole entry): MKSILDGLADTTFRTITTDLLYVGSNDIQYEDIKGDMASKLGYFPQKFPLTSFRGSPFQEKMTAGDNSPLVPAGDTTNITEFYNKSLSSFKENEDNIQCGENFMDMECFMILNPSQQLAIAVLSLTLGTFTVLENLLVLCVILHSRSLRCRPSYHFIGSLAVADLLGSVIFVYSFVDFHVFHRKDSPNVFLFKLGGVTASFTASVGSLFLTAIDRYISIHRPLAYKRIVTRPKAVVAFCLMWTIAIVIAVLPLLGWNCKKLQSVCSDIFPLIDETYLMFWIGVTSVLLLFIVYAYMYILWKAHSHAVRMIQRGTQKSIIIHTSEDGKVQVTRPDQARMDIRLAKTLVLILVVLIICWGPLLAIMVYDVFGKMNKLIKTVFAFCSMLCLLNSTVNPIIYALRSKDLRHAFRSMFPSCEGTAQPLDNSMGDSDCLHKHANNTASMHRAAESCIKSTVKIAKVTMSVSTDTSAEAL

Cannabinoid receptor 1 (Rattus norvegicus, UniProt P20272), sequence (P20272 whole entry): as the sequence (P47746 whole entry) above, with D95E counted along it

CCCCCCC(C)(C)c1cc(OC)c([C@H]2C=C(CO)[C@H]3C[C@@H]2C3(C)C)c(OC)c1
Ki (Cannabinoid receptor 1 [1]): > 10000 nM

C=C(C)[C@@H]1CCC(C)=C[C@H]1c1c(O)cc(CCCCC)cc1O [CANNABIDIOL]
IC50 (Neutrophil): 0.45 nM
Activity (HEK293): 50%
EC50 [2]: 3700 nM
Activity [3]: >50%
Activity (Mus musculus [4]): 50%
Activity [5]: 17%
Activity (Fibroblast [6]): 21%
Activity [7]: >50%
Activity (Mus musculus [8]): 50%
Activity (Fibroblast [9]): 77%
Activity (Mus musculus [10]): 50%
Activity (Mus musculus [11]): 50%
Activity (Mus musculus [12]): 50%
Activity [13]: >50%
Activity [14]: 21%

C=C(C)[C@@H]1CCC(C)=C[C@H]1c1ccc(CCCCC)cc1O
IC50 (Cannabinoid receptor 1 [15]): 30.9 nM

C=C(C)[C@@H]1CCC(C)=C[C@H]1c1c(C)cc(O)cc1O
IC50 (Neutrophil): 33 nM
